Experiments:
FLG promoter = test: Transcription-activating effect on FLG promoter, luciferase assay in NHEK cells (Example 1); format: cell-based, human; details: 1 μM (Comparative Compound 2: 1 μM or 0.1 μM), 3 days
Procedure: In this example, the transcription activity on FLG promoter of an N-quinolylbenzamide derivative (Compound 1) was confirmed by using neonatal normal human epidermal keratinocytes (NHEK cells). The transcription activity of the FLG promoter was measured by luciferase assay.
1) 1.2×10^5 cells/ml of NHEK cells (KURABO INDUSTRIES LTD.) were plated on a 96-well plate at 80 μl/well (9.6×10^3 cells/well), and 100 μl of a culture medium containing a medium for proliferating normal human epidermal keratinocytes (HuMedia-KG2, KURABO INDUSTRIES LTD.) supplemented with human epidermal growth factor (hEGF) (0.1 ng/ml), insulin (10 μg/ml), hydrocortisone (0.5 μg/ml), gentamycin (50 μg/ml), amphotericin B (50 ng/ml), and bovine brain pituitary extract (BPE) (0.4%, v/v) were added to the plate, and the cells were cultured under the conditions of 37° C. and 5% CO2. […]
4) 3 days after the addition of the medicament in the step 3), reagents for luciferase assay (Bright-Glo™ Luciferase Assay System, Promega Corporation) were used and the luciferase activity was measured according to the manufacturer's protocol. […] After standing at rest for two minutes, 70 μl thereof were subjected to the measurement of the absorbance of luciferase.

FLG mRNA = FLG mRNA in three-dimensional cultured skin, real-time PCR (Example 10); format: cell-based; details: human skin three-dimensional model, 1 μM, recovered 7 days after start of culture
Procedure: In this example, the expression-increasing effect of Compound 1 on FLG mRNA was examined by using three-dimensional cultured skin. FLG mRNA expression was measured by a real-time PCR method.
1) A commercially available human skin three-dimensional model (TEST SKIN™ LSE-013, TOYOBO CO., LTD.) was cultured by using TEST SKIN LSE ASSAY MEDIUM (TOYOBO CO., LTD.) according to the manufacturer's protocol.
2) After culture for 2 days, the following medicament A) or C) was dissolved in DMSO, and was added to the medium at 1 μM to treat the cells with the medicament. • A) Compound 1 (N-quinolylbenzamide derivative) • C) Comparative Compound 2 (scriptaid)
As a control example, a solvent only (vehicle) was added.
3) After further culture for 2 days (4 days after the start of culture), the medium was exchanged for the medium to which the medicament was added. 3 days after further culture (7 days after the start of culture), the three-dimensional cultured skin was recovered, frozen with liquid nitrogen, and then stored at −30° C.
4) Total RNA was extracted from each of the cells treated with the medicaments by using an RNA extraction reagent (RNeasy™, QIAGEN N.V.) according to the manufacturer's protocol. cDNA was prepared from the total RNA by using a reverse transcriptase reagent (Prime Script™, Takara) according to the manufacturer's protocol. […]

FLG monomer = FLG monomer in three-dimensional cultured skin, Western blotting (Example 11); format: cell-based, human; details: 1 μM, immunoblotting
Procedure: In this example, the expression-increasing effect of Compound 1 on FLG monomer was examined by using a three-dimensional cultured skin. The expression of the FLG monomer was confirmed by Western blotting.
In this example, the same procedures as those in the steps 1) to 3) of Example 10 were conducted. It should be noted that as a medicament, D) Comparative Compound 3 (M344) was used, as well as A) Compound 1 and C) Comparative Compound 2 of Example 10.
4) The three-dimensional cultured skin obtained in the same manner as in the steps 1) to 3) of Example 10 was recovered, and was cut into pieces with scissors. Then, 100 μl of Lysis buffer (0.1 M Tris-HCl (pH 9.0), 6 M Urea, 1% 2-mercapto-ethanol, 1% SDS, 1 mM EDTA, and Protease inhibitor cocktail) were added and the cells were homogenized with an electrically powered pestle. The homogenized cells were centrifuged at 15,000 rpm at 4° C. for 20 minutes, and the supernatant was recovered to be used as a sample for measurement. The total protein in the sample was quantified by using a protein assay reagent (Bio-Rad Laboratories, Inc.) according to the manufacturer's protocol. The protein was adjusted so that each sample contained 15 μg protein/lane, and the samples were subjected to electrophoresis by SDS-PAGE (Invitrogen, NuPAE Novex Bis-Tris mini Gel 4 to 12%) under the conditions of 100 V and 2 hours. As a marker, Precision Plus Protein Standards (Bio-Rad Laboratories, Inc.) was used. The proteins separated by the electrophoresis were transferred to a PVDF membrane (blotting), and the expression of FLG monomer was confirmed by using an anti-FLG antibody (Filaggrin AKH1, Santa Crus). At that time, Anti-mouse IgG-HRP (GE Healthcare) was used as a secondary antibody, and Amersham ECL Plus Western Blotting Detection Reagents (GE Healthcare) was used as a color developer.

With O=C(CCCCCN1C(=O)c2cccc3cccc(c23)C1=O)NO [Comparative Compound 2, 6-(1,3-Dioxo-1H,3H-benzo[de]isoquinolin-2-yl)hexanoic acid hydroxyamide, reference compound] as the molecule, how does the “transcription activity on FLG promoter” value (FLG promoter) read?
Its value is “the transcription activity on FLG promoter was observed”.

What about the “FLG mRNA expression (GAPDH ratio)” value (FLG mRNA) of the same molecule?
The value was “increased FLG mRNA expression”.

What about the “production of FLG monomer” value (FLG monomer) of the same molecule?
The value was “clear production of FLG monomer was not observed”.

How did the “transcription activity on FLG promoter” value (FLG promoter) turn out when CCc1ccc(OCc2ccccc2C(=O)Nc2ccc3nc(C)cc(N)c3c2)cc1.Cl [Compound 1, N-(4-Amino-2-methyl-6-quinolyl)-2-[(4-ethylphenoxy)methyl]benzamide hydrochloride] was run?
Its value is “had the transcription activity on FLG promoter”.

What about the “FLG mRNA expression (GAPDH ratio)” value (FLG mRNA) of the same molecule?
Its value is “increased FLG mRNA expression”.

And the “production of FLG monomer” value (FLG monomer)?
Its value is “clear production of FLG monomer was confirmed”.

And the “production of pro-FLG” value (FLG monomer)?
The value was “production of a large amount of pro-FLG”.

Source: patent US20150190416A1, “FILAGGRIN PRODUCTION PROMOTER, THERAPEUTIC AGENT FOR DISEASES ASSOCIATED WITH REDUCTION IN PRODUCTION OF FILAGGRIN, AND METHOD FOR SCREENING FOR SAID THERAPEUTIC AGENT” (KYOTO UNIVERSITY, priority 2012, published 2015)
